system: Hartley-type male guinea pigs; experiment: Guinea Pig Homogeneous Skin Passive Anaphylaxis Assay (PCA reaction); format: in vivo, guinea pig (Hartley-type); settings: Cavia porcellus, 10 mg/kg oral, 48 h after sensitization, read-out: Allergic reaction inhibitory index (%)
Summary of the method: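 Inhibition % is derived from Evans Blue leakage area (mm^2, product of spot diameters) read 30 min after i.v. OVA/dye challenge. Beforehand, male Hartley guinea pigs (250~300 g) were passively sensitized intradermally with 120-fold-diluted anti-OVA serum and, after 48 h, received test compound 10 mg/kg p.o.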

Row | SMILES | inhibition in vivo at 10 mg/kg
1 | CC(C)Oc1ccc2c(OC(=O)c3ccccc3)c(OC(C)C)c(=O)oc2c1 [Compound 52, 3,7-(diisopropoxy)-4-(benzoyloxy)-2H-1-benzopyran-2-one] | 32%
2 | CC(=O)Oc1c(OC(C)=O)c2cccc(OC(C)C)c2oc1=O [Compound 132, 3,4-(diacetoxy)-8-(isopropoxy)-2H-1-benzopyran-2-one] | 32%
3 | CC(=O)Oc1c(O)c2ccc(O)cc2oc1=O [Compound 7, 3-(acetoxy)-4,7-(dihydroxy)-2H-1-benzopyran-2-one] | 48%
4 | CCCCCCCCCCOc1ccc2c(OC(C)=O)c(OC/C=C(\C)CCC=C(C)C)c(=O)oc2c1 [Compound 69, 3-(geranyloxy)-4-(acetoxy)-7-(decyloxy)-2H-1-benzopyran-2-one] | 33%
5 | CC(C)=CCC/C(C)=C/COc1c(O)c2c(OC/C=C(\C)CCC=C(C)C)cccc2oc1=O [Compound 253, 3,5-(digeranyloxy)-4-hydroxy-2H-1-benzopyran-2-one] | 33%
6 | COc1c(O)c2ccc(OC/C=C(\C)CCC=C(C)C)cc2oc1=O [Compound 78, 3-(methoxy)-4-hydroxy-7-(geranyloxy)-2H-1-benzopyran-2-one] | 37%
7 | CCCCCCCCCCOc1c(O)c(=O)oc2cc(O)ccc12 [Compound 9, 4-(decyloxy)-3,7-(dihydroxy)-2H-1-benzopyran-2-one] | 39%
8 | CCCCCCCCCCOc1cccc2c(O)c(OC(=O)c3ccccc3)c(=O)oc12 [Compound 143, 3-(benzoyloxy)-4-hydroxy-8-(decyloxy)-2H-1-benzopyran-2-one] | 30%
9 | COc1c(OC(C)C)c2ccc(O)cc2oc1=O [Compound 18, 3-(methoxy)-4-(isopropoxy)-7-hydroxy-2H-1-benzopyran-2-one] | 30%
10 | CCCCCCCCCCOc1c(O)c2cc(O)ccc2oc1=O [Compound 266, 3-(decyloxy)-4,6-(dihydroxy)-2H-1-benzopyran-2-one] | 33%
11 | COc1ccc2c(OC(C)C)c(OC(C)=O)c(=O)oc2c1 [Compound 32, 3-(acetoxy)-4-(isopropoxy)-7-(methoxy)-2H-1-benzopyran-2-one] | 33%
12 | CCCCCCCCCCOc1c(O)c(=O)oc2ccc(OC)cc12 [Compound 276, 3-(hydroxy)-4-(decyloxy)-6-(methoxy)-2H-1-benzopyran-2-one] | 34%
13 | CCCCCCCCCCOc1cccc2c(OC(=O)c3ccccc3)c(OC(C)=O)c(=O)oc12 [Compound 146, 3-(acetoxy)-4-(benzoyloxy)-8-(decyloxy)-2H-1-benzopyran-2-one] | 30%
14 | CC(C)=CCC/C(C)=C/COc1cccc2c(O)c(O)c(=O)oc12 [Compound 159, 3,4-(hydroxy)-8-(geranyloxy)-2H-1-benzopyran-2-one] | 36%
15 | CCCCCCCCCCOc1c(OC)c(=O)oc2cccc(O)c12 [Compound 184, 3-(methoxy)-4-(decyloxy)-5-hydroxy-2H-1-benzopyran-2-one] | 33%
16 | CCCCCCCCCCOc1cccc2oc(=O)c(O)c(O)c12 [Compound 230, 3,4-(dihydroxy)-5-(decyloxy)-2H-1-benzopyran-2-one] | 43%
17 | COc1cccc2c(OC(C)=O)c(O)c(=O)oc12 [Compound 112, 3-hydroxy-4-(acetoxy)-8-(methoxy)-2H-1-benzopyran-2-one] | 32%
18 | CCCCCCCCCCOc1cccc2c(O)c(O)c(=O)oc12 [Compound 144, 3,4-(dihydroxy)-8-(decyloxy)-2H-1-benzopyran-2-one] | 34%
19 | CCCCCCCCCCOc1cccc2oc(=O)c(OC(C)C)c(OC/C=C(\C)CCC=C(C)C)c12 [Compound 242, 3-(isopropoxy)-4-(geranyloxy)-5-(decyloxy)-2H-1-benzopyran-2-one] | 30%
20 | CC(C)Oc1c(O)c2c(O)cccc2oc1=O [Compound 182, 3-(isopropoxy)-4,5-(dihydroxy)-2H-1-benzopyran-2-one] | 31%
